Among the data in patent publication US20080226758A1, “Lipoxygenase and Cyclooxygenase Inhibition” (priority 2006, published 2008) are IC50 values, retold here.

As usually defined, the IC50 is the concentration at which inhibition is half-maximal.

Molecules are shown by their SMILES. Values joined by “and” are separate entries in the source; they are usually repeats but may differ in a detail not shown here. Identical values can stand only once.

Holding throughout (format): biochemical
One assay addresses T1, 15-LO (Oryctolagus cuniculus, UniProt P12530).
T1 construct: endogenous in cells; host or cells: rabbit reticulocytes
T1 sequence (P12530 1-663): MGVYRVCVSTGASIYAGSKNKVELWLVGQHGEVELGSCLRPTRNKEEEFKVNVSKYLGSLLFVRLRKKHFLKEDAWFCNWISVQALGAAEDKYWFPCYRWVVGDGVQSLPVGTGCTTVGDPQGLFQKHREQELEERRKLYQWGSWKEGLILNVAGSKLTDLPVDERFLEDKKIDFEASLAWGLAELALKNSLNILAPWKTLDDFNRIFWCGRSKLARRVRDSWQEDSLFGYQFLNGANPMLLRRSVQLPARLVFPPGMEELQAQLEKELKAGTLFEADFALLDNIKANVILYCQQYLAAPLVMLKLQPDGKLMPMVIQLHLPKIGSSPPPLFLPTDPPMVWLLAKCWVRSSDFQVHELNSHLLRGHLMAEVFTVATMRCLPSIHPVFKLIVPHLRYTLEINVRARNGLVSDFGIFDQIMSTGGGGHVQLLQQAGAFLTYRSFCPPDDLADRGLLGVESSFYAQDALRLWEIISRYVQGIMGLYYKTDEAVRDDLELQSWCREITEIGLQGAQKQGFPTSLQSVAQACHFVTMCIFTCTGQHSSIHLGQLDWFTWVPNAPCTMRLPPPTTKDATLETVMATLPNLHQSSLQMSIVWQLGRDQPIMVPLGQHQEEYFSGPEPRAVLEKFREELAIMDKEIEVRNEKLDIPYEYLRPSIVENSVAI
The assay is described as follows: 15-LO assay (13-HPODE, spectrophotometric). The note with it: rabbit reticulocytes; 13-HPODE spectrophotometrically. The protocol: (§1) 5-LO and 15-LO assays: Human peripheral blood mononuclear cells (PBMC) cells and rabbits reticulocytes were used in the 5-LO and 15-LO bioassays, and the assays were conducted according to the protocols reported previously, with either linoleic acid or arachidonic acid as substrates. LO activity was measured by quantifying immunodetectable Leukotriene B4 (LTB4) specifically with enzyme immunoassay (EIA) in the 5-LO assay, or monitoring 13-hydroperoxy-9,11-octadecadienoic acid (13-HPODE) spectrophotometrically in the 15-LO assay.
(§2) The results were expressed as either percentage inhibition, or IC50, for test samples and data represent the average ±SD of at least triplicate determinations.

For another assay, the target named is T2, Human recombinant COX-2 (Homo sapiens, UniProt P35354).
T2 construct: purchased Sigma C-0858; host or cells: insect Sf21 cells
T2 sequence (P35354 18-604): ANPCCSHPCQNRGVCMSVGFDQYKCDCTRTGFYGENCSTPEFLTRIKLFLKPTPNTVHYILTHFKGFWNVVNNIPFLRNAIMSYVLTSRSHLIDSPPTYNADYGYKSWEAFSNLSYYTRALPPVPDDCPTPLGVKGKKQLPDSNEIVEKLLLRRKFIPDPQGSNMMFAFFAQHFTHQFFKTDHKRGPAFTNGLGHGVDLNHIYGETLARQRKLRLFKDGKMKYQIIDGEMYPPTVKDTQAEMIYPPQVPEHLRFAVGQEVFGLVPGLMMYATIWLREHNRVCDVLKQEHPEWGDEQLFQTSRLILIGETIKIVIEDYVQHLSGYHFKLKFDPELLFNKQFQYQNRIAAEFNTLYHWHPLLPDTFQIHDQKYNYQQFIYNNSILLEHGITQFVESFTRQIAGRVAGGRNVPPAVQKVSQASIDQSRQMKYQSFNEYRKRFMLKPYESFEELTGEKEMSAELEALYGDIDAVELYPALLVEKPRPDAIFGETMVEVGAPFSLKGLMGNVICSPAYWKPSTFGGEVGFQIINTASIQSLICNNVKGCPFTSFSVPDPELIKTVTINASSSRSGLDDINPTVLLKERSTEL
The assay is described as follows: COX-2 inhibition assay (PGE2 EIA). The note with it: human recombinant COX-2 expressed in Sf21 cells; 0.3 μM arachidonic acid. The protocol:
COX-1 and COX-2 assays: COX-1 and -2 Inhibition assays were performed by the methods described previously with minor modifications. COX-2 enzyme was purchased from Sigma (Catalog # C-0858), and the PGE2 EIA kit from Amersham (Catalog # RPN 220). Human recombinant COX-2, expressed in insect Sf21 cells, and human platelets, respectively, were used in the COX-2 and COX-1 assays. The extract and partitions were dissolved in DMSO (Sigma, USA), and tested at 100 μg/mL (final concentration). The pure compounds were initially tested at 30 μM. […] Test samples were preincubated with 0.12 μg/ml enzyme in modified Tris-HCl buffer pH 7.7 (COX-2), and with cells (5×10^7/ml), in modified HEPES buffer pH 7.4 (COX-1) for 15 minutes at 37° C. The reactions were initiated by addition of 0.3 μM arachidonic acid (COX-2), and 100 μM arachidonic acid (COX-1), respectively, for another 5-minute incubation period, then terminated by further addition of 1 N HCl. An aliquot was then combined with the EIA kit for spectrophotometric determination of the quantity of PGE2 formed.
as §2

For a further assay, the target named is T3, 5-LO (Homo sapiens, UniProt P09917).
T3 construct: endogenous in cells; host or cells: human peripheral blood mononuclear cells (PBMC)
T3 sequence (P09917 1-674): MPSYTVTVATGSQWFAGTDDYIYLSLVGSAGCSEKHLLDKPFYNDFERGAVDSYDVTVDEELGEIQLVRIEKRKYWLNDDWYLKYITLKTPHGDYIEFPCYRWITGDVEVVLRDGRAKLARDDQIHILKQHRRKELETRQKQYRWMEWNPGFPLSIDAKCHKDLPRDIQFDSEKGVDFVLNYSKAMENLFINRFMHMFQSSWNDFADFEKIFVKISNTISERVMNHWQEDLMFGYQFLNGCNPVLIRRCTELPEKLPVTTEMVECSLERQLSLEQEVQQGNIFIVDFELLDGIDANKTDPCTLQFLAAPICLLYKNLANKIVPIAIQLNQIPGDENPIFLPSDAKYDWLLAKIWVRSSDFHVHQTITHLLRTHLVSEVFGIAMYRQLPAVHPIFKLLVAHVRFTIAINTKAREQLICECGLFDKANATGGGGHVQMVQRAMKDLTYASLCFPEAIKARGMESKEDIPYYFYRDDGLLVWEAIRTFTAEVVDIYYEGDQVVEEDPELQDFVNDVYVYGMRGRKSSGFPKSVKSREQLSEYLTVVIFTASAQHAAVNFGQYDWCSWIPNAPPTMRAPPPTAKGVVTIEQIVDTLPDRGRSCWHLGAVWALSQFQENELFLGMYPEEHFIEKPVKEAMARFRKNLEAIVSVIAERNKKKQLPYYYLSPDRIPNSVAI
The assay is described as follows: 5-LO assay (LTB4 by EIA). Conditions: human PBMC. The method, then: as §1, §2

Take `O=C1OC(c2ccc(O)c(O)c2)C2COC(c3ccc(O)c(O)c3)C12` (single isomer, unassigned; (+)) [compound 1, (+)-3,4,3′,4′-tetrahydroxy-9,7′α-epoxylignano-7α,9′-lactone]: the IC50 against 15-LO stood at 520 nM; on Human recombinant COX-2 it was 90200 nM.
For `OCC1C(c2ccc(O)c(O)c2)OCC1C(O)c1ccc(O)c(O)c1` (single isomer, unassigned; (+)) [compound 2, (+)-3,3′-bisdemethyltanegool] the same measures were 760 nM and 73900 nM.
The matching figures for `Oc1ccc(C2OCC3C(c4ccc(O)c(O)c4)OCC23)cc1O` (stereo not drawn) [compound 4, 3,3′-bisdemethylpinoresinol]: 520 nM and > 100000 nM.
The matching figures for `O=c1c(O)c(-c2ccc(O)c(O)c2)oc2cc(O)cc(O)c12` [compound 5, quercetin]: 430 nM and 28600 nM.
For the compound `O=c1c(O)c(-c2ccc(O)cc2)oc2cc(O)cc(O)c12` [compound 6, kaempferol], the IC50 at 5-LO is 2650 to 13800 nM and 2700 nM; against 15-LO, 2200 nM.
With `COc1cc2ccc(=O)oc2cc1O` [compound 7, scopoletin], inhibition against 15-LO was half-maximal at 16500 nM (IC50).
Still for that read-out and setting: as for `COc1cc2oc(=O)ccc2cc1O` [compound 8, isoscopoletin], the figure is 15100 nM.
